Activity calls are given as the source filed them. The calls are words filed in the database; no cut-off is given here.
Tests used:
H9c2 [1] = test: Cardioprotective activity against CoCl2-induced cellular hypoxia injury in rat H9c2 cells assessed as increase in cell viability at 30 uM incubated for 24 hrs by CCK-8 assay; type: functional, cell-based
H9c2 [2] = test: Cardioprotective activity against CoCl2-induced cellular hypoxia injury in rat H9c2 cells assessed as cell viability at 1.25 uM incubated for 24 hrs by CCK-8 assay (reference value: 51.80 +/- 2.58 %); type: functional; settings: read-out: Activity
H9c2 [3] = test: Cardioprotective activity against CoCl2-induced cellular hypoxia injury in rat H9c2 cells assessed as ROS accumulation at 5 uM incubated for 24 hrs by DCFH-DA probe based analysis (reference value: 28.03 %); type: functional
H9c2 [4] = test: Cardioprotective activity against CoCl2-induced cellular hypoxia injury in rat H9c2 cells assessed as mitochondrial membrane potential at 10 uM incubated for 24 hrs in presence of GSSG by JC-1 staining based analysis (reference value: 48.08 %); type: functional
H9c2 [5] = test: Cardioprotective activity against CoCl2-induced cellular hypoxia injury in rat H9c2 cells assessed as reduction in hypoxia-induced apoptosis at 5 to 10 uM incubated for 24 hrs by Hoechst 33258 nuclear staining based analysis; type: functional, cell-based; settings: dose 5-10 µM
H9c2 [6] = test: Antioxidant activity against CoCl2-induced cellular hypoxia injury in rat H9c2 cells assessed as increase in hypoxia-reduced SOD level at 5 to 10 uM incubated for 24 hrs; type: functional, cell-based; settings: dose 5-10 µM

Structure (SMILES): C=CCSSCCC(=O)O[C@H]1CC[C@]2(C)[C@H]3C[C@@H](O)[C@@H]4[C@@H]([C@]5(C)CC[C@@H](C(C)(C)O)O5)CC[C@@]4(C)[C@]3(C)CC[C@H]2C1(C)C
- Activity (H9c2 [1]): inactive
- viability at 1.25 µM (H9c2 [2]): 85.7%
- Activity (H9c2 [3]): 6.38%
- Activity (H9c2 [4]): 61.96%
- Activity (H9c2 [5]): Active
- Activity (H9c2 [6]): Active

From ChEMBL document CHEMBL6120941, “Discovery of SIRT1-Activating Hydrogen Sulfide Donating Derivatives for Efficient Resistant of Myocardial Ischemic Injury” (J Med Chem, 2024)
